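Compound exposure: 48 hours, 5 concentrations, 96-well plates. GI50: concentration for 50% inhibition of growth.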 Activity calls are given as the source filed them. Cut-off read from the data, not from the text of the source: active = GI50 up to about 1.1 µM and inactive = higher. Where only a bound is given, the exact number is not on record here.

As a reminder, the GI50 is the concentration at which growth is held to half of that of the control.

Test systems include OVCAR-3; HCT-15; SK-MEL-5; MDA-MB-231; RXF 393; NCI-H226; MCF7; T47D; NCI-H460; SF-539; MOLT-4; SK-MEL-28; HCT-116; EKVX; SR; HOP-62; SF-295; UO-31; PC-3; SW-620.
Assay in all cases: DTP human tumour cell line panel, 48 h

In the case of `COC1CCC(OC2CC(C3(C)CCC4(CC(O)C(C)C(C(C)/C=C(\C)C(=O)C(C)CC(C)C(=O)O)O4)O3)OC3(OC(C4OC(O)(CO)C(C)CC4C)CC3C)C2C)OC1C` (stereo not given), the 50% growth inhibitory concentration (GI50) was < 0.01 µM (active) in the assay on OVCAR-3; 0.0351 µM in the assay on HCT-15; < 0.0201 µM (active) in the assay on SK-MEL-5; 0.0621 µM (active) with MDA-MB-231; < 0.01 µM (active) in the assay on RXF 393; 0.378 µM (active) with NCI-H226. Besides, the GI50 in the assay on MCF7 was < 0.0208 µM (active); in the assay on T47D, < 0.01 µM (active); in the assay with NCI-H460, < 0.0144 µM (active); in the assay on SF-539, 0.0453 µM (active); in the assay with MOLT-4, < 0.01 µM (active); in the assay on SK-MEL-28 it was 0.0362 µM (active). Moreover, the GI50 with HCT-116 was < 0.0279 µM (active); in the assay on EKVX it was 0.507 µM (active); with SR, < 0.01 µM (active); in the assay on HOP-62 it was < 0.0156 µM (active); with SF-295, 0.179 µM (active); in the assay on UO-31, 0.0548 µM (active). Moreover, the results for the GI50 in the assay on PC-3 and with SW-620 were < 0.01 µM (active) and < 0.0269 µM (active), respectively.

For the molecule `O=C1CC2SC(COCc3ccccc3)(CCN2Cc2ccccc2)C1` (stereo not given), the GI50 in the assay with OVCAR-3 was > 100 µM (inactive); in the assay with HCT-15, 40.6 µM; in the assay with SK-MEL-5 it was 19.5 µM (inactive); in the assay on MDA-MB-231 it was > 100 µM (inactive); in the assay with RXF 393, > 100 µM (inactive); in the assay with NCI-H226, 87.3 µM (inactive). The GI50 is 31 µM (inactive) in the assay with MCF7; 54.6 µM (inactive) with T47D; 54.6 µM (inactive) in the assay with NCI-H460; > 100 µM (inactive) in the assay on SF-539; 30.3 µM (inactive) in the assay on MOLT-4; > 100 µM (inactive) in the assay with SK-MEL-28. The GI50 in the assay with HCT-116 is 44.2 µM (inactive); in the assay on EKVX it was 64.3 µM (inactive); in the assay on SR it was 35.2 µM (inactive); in the assay on HOP-62, > 100 µM (inactive); in the assay with SF-295, 61.2 µM (inactive); in the assay on UO-31, 34.7 µM (inactive). Further, the values for the GI50 with PC-3 and in the assay with SW-620 were 35 µM (inactive) and > 100 µM (inactive), respectively.

Turning to `CC[C@H]1C=CCC[C@@]2(C[C@@H]3CC[C@@H]4[C@H](C(=O)OCCCCCCCCCCCCCCCC(=O)N(CCCN)C[C@@H](O)CCN)[C@]5(CCC[C@@H](C)O5)NC(=[N+]34)N2)O1`, the GI50 is 0.887 µM (active) in the assay with OVCAR-3; 0.41 µM with HCT-15; 0.0407 µM (active) in the assay on SK-MEL-5; 0.748 µM (active) in the assay with MDA-MB-231; 0.439 µM (active) in the assay on RXF 393; 0.968 µM (active) in the assay on NCI-H226. Besides, the GI50 in the assay with MCF7 is 0.46 µM (active); in the assay on T47D, 0.824 µM (active); with NCI-H460, 0.443 µM (active); in the assay on SF-539 it was 0.556 µM (active); in the assay with MOLT-4 it was 0.0869 µM (active); in the assay with SK-MEL-28 it was 1.27 µM (inactive). Besides, the 50% growth inhibitory concentration (GI50) in the assay on HCT-116 was 0.286 µM (active); in the assay with EKVX, 0.897 µM (active); with SR, 0.0802 µM (active); with HOP-62 it was 1.13 µM (inactive); in the assay with SF-295, 0.518 µM (active); with UO-31, 0.337 µM (active). The GI50 in the assay with PC-3 was 0.385 µM (active); with SW-620, 0.352 µM (active).

`O=C(O)c1cccc(S(=O)(=O)NN2C(=O)CSC2c2ccccc2Cl)c1` (stereo not given): the GI50 with OVCAR-3 was > 100 µM (inactive); in the assay with HCT-15 it was over 100 µM; with SK-MEL-5 it was > 100 µM (inactive); in the assay with MDA-MB-231 it was > 100 µM (inactive); with RXF 393, > 100 µM (inactive); in the assay with NCI-H226, 58.3 µM (inactive). The GI50 in the assay with MCF7, in the assay on T47D, in the assay with NCI-H460, with SF-539, with MOLT-4 and with SK-MEL-28 was > 100 µM (inactive) in each case. Further, the GI50 is > 100 µM (inactive) with HCT-116; > 100 µM (inactive) with EKVX; 4.09 µM (inactive) in the assay on SR; > 100 µM (inactive) in the assay with HOP-62; > 100 µM (inactive) with SF-295; > 100 µM (inactive) in the assay with UO-31. The GI50 in the assay on PC-3 and in the assay with SW-620 was > 100 µM (inactive) in each case.

As to `CCCC(=O)N(C)/N=N/c1ccc(C(=O)OCC)cc1`, the GI50 is > 100 µM (inactive) with OVCAR-3; over 100 µM with HCT-15; > 100 µM (inactive) in the assay on SK-MEL-5; > 100 µM (inactive) with MDA-MB-231; > 100 µM (inactive) in the assay with RXF 393; > 100 µM (inactive) in the assay with NCI-H226. For the same molecule, the GI50 in the assay on MCF7 is > 100 µM (inactive); with T47D, 63.4 µM (inactive); with NCI-H460 it was 22.6 µM (inactive); in the assay with SF-539, > 100 µM (inactive); in the assay on MOLT-4, > 100 µM (inactive); in the assay on SK-MEL-28, > 100 µM (inactive). The GI50 was > 100 µM (inactive) in the assay with HCT-116; 15.2 µM (inactive) in the assay with EKVX; > 100 µM (inactive) in the assay on SR; > 100 µM (inactive) with HOP-62; > 100 µM (inactive) in the assay with SF-295; 42.6 µM (inactive) in the assay with UO-31. The GI50 with PC-3 and with SW-620 was > 100 µM (inactive) each time.

For `CCOC(=O)C1(CC(=O)O)CCCC1=O` (stereo not given), the GI50 with OVCAR-3 is > 100 µM (inactive); with HCT-15 it was over 100 µM; in the assay on SK-MEL-5, > 100 µM (inactive); in the assay with MDA-MB-231, > 100 µM (inactive); in the assay on RXF 393 it was > 100 µM (inactive); with NCI-H226, > 100 µM (inactive). Also, the GI50 in the assay with MCF7 is > 100 µM (inactive); in the assay with T47D, > 100 µM (inactive); with NCI-H460, > 100 µM (inactive); in the assay with SF-539, > 100 µM (inactive); with MOLT-4, 0.475 µM (active); with SK-MEL-28 it was > 100 µM (inactive). Besides, the GI50 with HCT-116, in the assay with EKVX, with SR, with HOP-62, with SF-295 and with UO-31 was > 100 µM (inactive) in each case. In addition, the GI50 with PC-3 and in the assay with SW-620 was > 100 µM (inactive) in each case.

Turning to `CCN(CC)C(=S)N/N=C/c1cc(OC)ccc1O`, the GI50 with OVCAR-3 was 2.1 µM (inactive); with HCT-15, 1.36 µM; in the assay on SK-MEL-5, 6.22 µM (inactive); in the assay on MDA-MB-231, 30.7 µM (inactive); in the assay with RXF 393 it was 9.04 µM (inactive); in the assay on NCI-H226 it was 3.03 µM (inactive). In addition, the GI50 in the assay on MCF7 is 3.84 µM (inactive); in the assay with T47D, 7.28 µM (inactive); in the assay with NCI-H460, 1.66 µM (inactive); in the assay on SF-539, 6.97 µM (inactive); in the assay with MOLT-4, 2.09 µM (inactive); in the assay with SK-MEL-28 it was 3.72 µM (inactive). For the same molecule, the GI50 with HCT-116 is 4.86 µM (inactive); in the assay with EKVX it was 10.4 µM (inactive); in the assay with SR, 2.76 µM (inactive); with HOP-62, 7.5 µM (inactive); in the assay with SF-295 it was 4.11 µM (inactive); with UO-31 it was 0.561 µM (active). The results for the GI50 in the assay with PC-3 and in the assay on SW-620 were 8.85 µM (inactive) and 8.28 µM (inactive), respectively.

In the case of `COC12C=CC(CC1)C(C)(C)C2OS(C)(=O)=O` (stereo not given), the GI50 is > 100 µM (inactive) in the assay on OVCAR-3; over 100 µM with HCT-15; > 100 µM (inactive) in the assay on SK-MEL-5; > 100 µM (inactive) in the assay on MDA-MB-231; > 100 µM (inactive) in the assay on RXF 393; > 100 µM (inactive) in the assay with NCI-H226. In addition, the GI50 in the assay with MCF7, in the assay on T47D, in the assay with NCI-H460, with SF-539, with MOLT-4 and in the assay with SK-MEL-28 was > 100 µM (inactive) in each case. Moreover, the GI50 in the assay with HCT-116, with EKVX, with SR, with HOP-62, with SF-295 and in the assay on UO-31 was > 100 µM (inactive) each time. Besides, the GI50 with PC-3 and with SW-620 was > 100 µM (inactive) each time.

In the case of `O=C1C(CN2CCCCC2)CCC1CN1CCCCC1` (stereo not given), the GI50 is 17.1 µM (inactive) in the assay on OVCAR-3; 20 µM with HCT-15; 43.9 µM (inactive) in the assay on SK-MEL-5; 20.2 µM (inactive) with MDA-MB-231; 14.8 µM (inactive) in the assay on RXF 393; > 96.6 µM (inactive) with NCI-H226. The GI50 with MCF7 is 21.9 µM (inactive); in the assay on T47D it was 13.5 µM (inactive); with NCI-H460, > 100 µM (inactive); in the assay with SF-539, 30.6 µM (inactive); in the assay with MOLT-4, 2.22 µM (inactive); in the assay on SK-MEL-28, 20 µM (inactive). For the same molecule, the GI50 in the assay with HCT-116 is 24.5 µM (inactive); with EKVX, > 100 µM (inactive); in the assay on SR it was 1.6 µM (inactive); in the assay on HOP-62, > 100 µM (inactive); in the assay on SF-295 it was > 46.5 µM (inactive); in the assay with UO-31, 15 µM (inactive). Also, the GI50 with PC-3 is 27.1 µM (inactive); in the assay on SW-620 it was 6.37 µM (inactive).

For `Clc1cc2nc(C3CCCCO3)[nH]c2cc1Cl` (stereo not given), the GI50 is 5.09 µM (inactive) in the assay on OVCAR-3; 6.98 µM in the assay on HCT-15; 6.03 µM (inactive) in the assay with SK-MEL-5; 34.3 µM (inactive) in the assay with MDA-MB-231; 8.17 µM (inactive) in the assay with RXF 393; 86.7 µM (inactive) in the assay on NCI-H226. In addition, the GI50 is 3.48 µM (inactive) in the assay with MCF7; 14.3 µM (inactive) in the assay with T47D; 18.6 µM (inactive) in the assay with NCI-H460; 26.8 µM (inactive) in the assay on SF-539; 33.3 µM (inactive) in the assay with MOLT-4; > 60.3 µM (inactive) in the assay with SK-MEL-28. Moreover, the GI50 was 13.7 µM (inactive) in the assay with HCT-116; 48.1 µM (inactive) in the assay with EKVX; 4.49 µM (inactive) in the assay on SR; 64.7 µM (inactive) in the assay on HOP-62; 38.6 µM (inactive) in the assay on SF-295; 11.1 µM (inactive) in the assay on UO-31. For the same molecule, the GI50 in the assay on PC-3 was 22.3 µM (inactive); in the assay on SW-620, 19.6 µM (inactive).

(Values after ChEMBL document CHEMBL1201862, “PubChem BioAssay data set” (2004).)
